Measurements as given in publication PMC12705226, “Lotusin A: a novel pyrrole terpenoid hydrid from lotus roots (Nelumbo nucifera Gaertn.)” (RSC Advances, 2025).
Like-named read-outs stand apart in the source and are kept apart here. One block for each compound: values may come before it.

Experiments:
α-glucosidase = α-glucosidase (Saccharomyces cerevisiae, UniProt P38158); assay: biochemical
Method: The α-glucosidase inhibitory assay was performed using a somewhat modified method of Kurihara et al.[44] For every reaction, […] p-nitrophenyl-α-D-glucopyranoside, 50 mL of 0.1 U mL^−1, α-glucosidase in 0.01 M phosphate buffer (pH 7.0), […] of sample solution (various concentrations of compound 1 with 5, 10, 25, 50 µM) were mixed. The mixture was kept at 37 °C for 30 minutes and added with 0.1 M Na2CO3. Mixture after reaction will be measured at a wavelength of 401 nm. The IC50 values represented the inhibitor concentration that suppressed 50% of enzyme activity. […] All experiments were performed in triplicate. The percentage inhibition was calculated using the following equation: α-glucosidase inhibition (%) = (Ac − At)/Ac × 100, where Ac is the absorbance of control (α-glucosidase, without sample) and At is the absorbance of test samples (α-glucosidase, with sample). The experimental results were processed using the GraphPad Prism 8 software.

RAW264.7 cells = assay: Determination of NO production in LPS-treated RAW264.7 cells (Griess reagent); format: cell-based; details: for IC50: Mus musculus
Method: The production of nitric oxide (NO) was quantified by measuring the NO levels in cell culture supernatants using a previously method. In brief, RAW264.7 cells (ATCC, Rockville, MD, USA, 1 × 10^5 cells per well) were treated with 1 µg mL^−1 of LPS for 24 h, with and without the test compounds (1–100 µM). After incubation, the supernatant (100 µL) was mixed with 100 µL of Griess reagent. The viability of the remaining cells was assessed using an MTT-based colorimetric assay as described above.

six bacterial strains = assay: Antibacterial preliminary screening, text statements on all strains together; format: cell-based; details: concentration of 10 µM
Method: It is based on combined biological activities of reported pyrrole sesquiterpenes and available screening models in our lab, including those regarding anti-inflammatory activities, antibacterial activities, and inhibition of α-glucosidase. […] To further evaluate the biological potential of compounds 1–6, we examined their antibacterial activities through preliminary screening at a concentration of 10 µM. The assays were conducted against three Gram-positive bacterial strains (Staphylococcus aureus, Bacillus subtilis, and Micrococcus luteus) and three Gram-negative strains (Salmonella typhimurium, Escherichia coli, and Klebsiella pneumoniae). This comparative screening aimed to determine whether any of these compounds could inhibit bacterial growth under identical conditions by conducting further experiments.
The antibacterial activities of compounds 1–6 were evaluated in 96-well plates using a modified broth microdilution method previously reported by our group. The MIC of the isolated compounds was determined against Staphylococcus aureus, Bacillus subtilis, Micrococcus luteus, Salmonella typhimurium, Escherichia coli, and Klebsiella pneumonia. Bacterial strains were cultured on TSB (Tryptic Soy Broth) agar plates and incubated at 37 °C for 24 h. […]

Staphylococcus aureus = assay: MIC measurement (broth microdilution); format: cell-based; details: Gram-positive; screening at 10.0 µM
Method: (§1) The antibacterial activities of compounds 1–6 were evaluated in 96-well plates using a modified broth microdilution method previously reported by our group. The MIC of the isolated compounds was determined against Staphylococcus aureus, Bacillus subtilis, Micrococcus luteus, Salmonella typhimurium, Escherichia coli, and Klebsiella pneumonia. Bacterial strains were cultured on TSB (Tryptic Soy Broth) agar plates and incubated at 37 °C for 24 h. A single colony was transferred to Muller–Hinton broth (MHB), continuously incubated and harvested after 24 h at 37 °C and centrifuged at 250 rpm. The suspensions were adjusted to 0.5 McFarland standard, diluted to achieve a final concentration of approximately 5 × 10^5 CFU mL^−1 and added to each well. All compounds were dissolved in DMSO and dispensed into 96-well plates at a starting concentration of 10 µM. Kanamycin was used as a positive control.

Micrococcus luteus = assay: MIC measurement (broth microdilution); format: cell-based; details: Gram-positive; screening at 10.0 µM
Method: as §1

Klebsiella pneumoniae = assay: MIC measurement (broth microdilution); format: cell-based; details: Gram-negative; screening at 10.0 µM
Method: as §1

Bacillus subtilis = assay: MIC measurement (broth microdilution); format: cell-based; details: Gram-positive; screening at 10.0 µM
Method: as §1

Escherichia coli = assay: MIC measurement (broth microdilution); format: cell-based; details: Gram-negative; screening at 10.0 µM
Method: as §1

Salmonella typhimurium = assay: MIC measurement (broth microdilution); format: cell-based; details: Gram-negative; screening at 10.0 µM
Method: as §1, with “The” for “The antibacterial activities of compounds 1–6 were evaluated in 96-well plates using a modified broth microdilution method previously reported by our group. The”

[1] = RAW264.7, 24 h, read-out: NO production (IC50, µM)

α-glucosidase, sequence (P38158 whole entry): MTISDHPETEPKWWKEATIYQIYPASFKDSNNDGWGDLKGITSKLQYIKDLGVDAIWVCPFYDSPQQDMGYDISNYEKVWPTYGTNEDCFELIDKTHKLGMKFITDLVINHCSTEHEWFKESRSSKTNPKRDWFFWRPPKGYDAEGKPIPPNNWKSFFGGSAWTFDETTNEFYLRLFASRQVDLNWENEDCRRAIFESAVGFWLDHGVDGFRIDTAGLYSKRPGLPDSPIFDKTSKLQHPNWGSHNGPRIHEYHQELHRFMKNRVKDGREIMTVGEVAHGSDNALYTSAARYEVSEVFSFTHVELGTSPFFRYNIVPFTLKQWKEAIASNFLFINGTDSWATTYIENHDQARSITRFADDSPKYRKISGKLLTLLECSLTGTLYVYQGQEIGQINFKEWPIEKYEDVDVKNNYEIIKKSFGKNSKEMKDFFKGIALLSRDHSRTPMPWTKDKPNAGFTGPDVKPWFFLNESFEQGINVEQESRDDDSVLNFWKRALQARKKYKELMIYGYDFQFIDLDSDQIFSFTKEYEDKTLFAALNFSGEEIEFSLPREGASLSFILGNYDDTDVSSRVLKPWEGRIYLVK

Structure (SMILES): O=c1c(O)c(-c2ccc(O)c(O)c2)oc2cc(O)cc(O)c12 [Compound 4, quercetin]
- IC50 (α-glucosidase): > 50 µM

Structure (SMILES): CC1=C(O)C(=O)C=C2C1=CC=C1[C@@]2(C)CC[C@@]2(C)[C@@H]3C[C@](C)(C(=O)O)CC[C@]3(C)CC[C@]12C [Celastrol, reference compound]
- IC50 (RAW264.7 cells; RAW264.7 cells, 1 µg mL^−1 LPS, 24 h, read-out: NO production (IC50)): 1.2 µM

Structure (SMILES): CO[C@@H](CC(=O)c1ccc[nH]1)C(N)=O [Compound 1, lotusin A]
- IC50 (α-glucosidase; pH 7.0, 37 °C, 30 minutes, read-out: α-Glucosidase (IC50)): 18.2 ± 0.17 µM
- IC50 (RAW264.7 cells; [1]): 21.5 ± 0.3 µM
- inhibition of microbial growth (six bacterial strains): no inhibition

Structure (SMILES): COc1cc(-c2oc3cc(O)cc(O)c3c(=O)c2O)ccc1O [Compound 5, isorhamnetin]
- IC50 (α-glucosidase): > 50 µM

Structure (SMILES): CC[C@H](CC[C@@H](C)[C@H]1CC[C@H]2[C@@H]3CCC4=CC(=O)CC[C@]4(C)[C@H]3CC[C@]12C)C(C)C (stereo in doubt) [Compound 3, stigmast-4-en-3-one]
- IC50 (α-glucosidase): > 50 µM

Structure (SMILES): CC(C)CCCC(C)C1CCC2C3CCC4CC(O)CCC4(C)C3CCC12C (centres unmarked) [Compound 2, cholestanol]
- IC50 (α-glucosidase): > 50 µM
- IC50 (RAW264.7 cells; [1]): > 100 µM
- NO production (IC50, µM) (RAW264.7 cells; RAW264.7 cells, 1 µg mL^−1 LPS, 24 h): did not show any activity

- IC50 (α-glucosidase; pH 7.0, 37 °C, 30 minutes, class symbol, read-out: α-Glucosidase (IC50)): > 50 µM
Structure (SMILES): O=c1cc(-c2ccc(O)cc2O)oc2cc(O)cc(O)c12 [Compound 6, norartocarpetin]

- MIC (10.0 µM) Staphylococcus aureus (Staphylococcus aureus): A.
- MIC (10.0 µM) Micrococcus luteus (Micrococcus luteus): A.
- MIC (10.0 µM) Klebsiella pneumoniae (Klebsiella pneumoniae): A.
- MIC (10.0 µM) Bacillus subtilis (Bacillus subtilis): A.
- MIC (10.0 µM) Escherichia coli (Escherichia coli): A.
- MIC (10.0 µM) Salmonella typhimurium (Salmonella typhimurium): A.
Structure (SMILES): NC[C@H]1O[C@H](O[C@H]2[C@H](O)[C@@H](O[C@H]3O[C@H](CO)[C@@H](O)[C@H](N)[C@H]3O)[C@H](N)C[C@@H]2N)[C@H](O)[C@@H](O)[C@@H]1O [Kanamycin]
